Measured values taken from patent US20250179078A1, “INHIBITORS OF NLRP3” (PTC THERAPEUTICS, INC., priority 2022, published 2025).

These compounds were tested against T1, NLRP3 (Homo sapiens, UniProt Q96P20) (assay: IL-1β Secretion Assay (NLRP3-dependent IL1β secretion in THP1 cells)). Details: PMA-differentiated THP-1 cells; compounds incubated 20 h; 2.5 μM Nigericin 3 h; HTRF IL-1β readout; read-out: IC50 IL-1β Inhibition.
T1 construct: host or cells: THP-1 cells differentiated with PMA
Format: cell-based
Protocol: Monocytic THP-1 cells (ATCC: TIB-202) were maintained in growth media consisting of RPMI 1640 medium (ThermoFisher, Cat #11875-085), 10% FBS (ThermoFisher) and 0.05 mM β-mercaptoethanol (ThermoFisher, Cat #21985-023), according to the provider's instructions. The cell concentration was adjusted to 7.5×10^5 cells/mL, and plated in complete growth media with a final concentration of 100 ng/mL phorbol 12-myristate 13-acetate (PMA, Sigma #P8139). Cells were seeded at 100 µL/well into a 96-well cell culture plate (ThermoFisher Cat #165305) and allowed to differentiate for 24 h in a cell culture incubator at 37° C. with 5% CO2. Cells were washed 1× with 100 ul PBS and replaced with fresh RPMI+5% FBS. Compounds were serial diluted in DMSO with 3 fold dilution for a total of 7 concentrations. Diluted compounds were added to the cells at a ratio of 1:200 and incubated for 20 h. The NLRP3 inflammasome was activated with the addition of 2.5 μM Nigericin (Sigma: Cat #SML1779-1 ml), for 3 h. After incubation, 15 μL of conditioned media was removed and assayed for levels of IL-1β using the HTRF IL-1β assay kit (Cisbio: Cat #62HIL1BPEH) as per the manufacturer's instructions.
Compounds, once produced and prepared according to the present invention, can be assessed in variety of assays to characterize their activities. For example, NLRP3-dependent IL1β secretion was evaluated in THP1 cells. IC50 values of IL1β inhibition were calculated from the plot of percentage of inhibition versus the inhibitor concentration by a logistics fit. TABLE I depict examples of compounds according to generic Formula I. Data which is <1 nM is listed as *****; data 1-10 nM is listed as ****; data 10-100 nM is listed as ***, data 100-300 nM is listed as **, data ≥300 nM is listed as *.

T1 sequence (Q96P20 whole entry): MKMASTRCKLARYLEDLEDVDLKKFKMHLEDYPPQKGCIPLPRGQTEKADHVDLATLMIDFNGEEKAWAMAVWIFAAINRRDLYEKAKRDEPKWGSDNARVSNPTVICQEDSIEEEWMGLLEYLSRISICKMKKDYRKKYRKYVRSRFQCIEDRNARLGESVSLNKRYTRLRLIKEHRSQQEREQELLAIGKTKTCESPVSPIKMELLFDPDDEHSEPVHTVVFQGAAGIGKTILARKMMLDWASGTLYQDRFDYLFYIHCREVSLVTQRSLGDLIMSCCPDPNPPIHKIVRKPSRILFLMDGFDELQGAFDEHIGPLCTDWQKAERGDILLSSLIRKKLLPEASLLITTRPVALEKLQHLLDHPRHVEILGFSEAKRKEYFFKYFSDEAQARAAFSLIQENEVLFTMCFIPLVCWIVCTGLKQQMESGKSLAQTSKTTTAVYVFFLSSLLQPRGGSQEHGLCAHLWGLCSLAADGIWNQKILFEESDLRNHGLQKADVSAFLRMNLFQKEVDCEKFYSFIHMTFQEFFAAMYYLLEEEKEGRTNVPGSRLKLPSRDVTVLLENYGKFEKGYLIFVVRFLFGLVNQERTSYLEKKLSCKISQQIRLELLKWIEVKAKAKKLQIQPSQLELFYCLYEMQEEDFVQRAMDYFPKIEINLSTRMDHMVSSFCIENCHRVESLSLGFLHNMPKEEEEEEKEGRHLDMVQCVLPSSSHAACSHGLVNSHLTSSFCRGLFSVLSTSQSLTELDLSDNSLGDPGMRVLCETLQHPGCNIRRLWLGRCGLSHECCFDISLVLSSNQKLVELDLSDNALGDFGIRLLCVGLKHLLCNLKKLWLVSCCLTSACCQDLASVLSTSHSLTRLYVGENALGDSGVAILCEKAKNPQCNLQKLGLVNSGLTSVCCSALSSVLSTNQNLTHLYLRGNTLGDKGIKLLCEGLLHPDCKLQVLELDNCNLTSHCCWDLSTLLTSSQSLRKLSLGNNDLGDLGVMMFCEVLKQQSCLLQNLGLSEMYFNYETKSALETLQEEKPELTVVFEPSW

| Compound | IC50 [nM] |
| --- | --- |
| O[C@@H]1CCCCC[C@@H]1Nc1nnc(-c2ccc(C(F)(F)F)cc2CC(F)(F)F)c2cccn12 (racemic) [Compound 126, (1S,2R)-2-({1-[2-(2,2,2-trifluoroethyl)-4-(trifluoromethyl)phenyl]pyrrolo[1,2-d][1,2,4]triazin-4-yl}amino)cycloheptan-1-ol AND (1R,2S)-2-({1-[2-(2,2,2-trifluoroethyl)-4-(trifluoromethyl)phenyl]pyrrolo[1,2-d][1,2,4]triazin-4-yl}amino)cycloheptan-1-ol] | 1 to 10 |
| O[C@@H]1CCCC[C@@H](Nc2nnc(-c3ccc(C(F)(F)F)cc3CC(F)(F)F)c3cccn23)C1 (racemic) [Compound 129, (1R,3R)-3-({1-[2-(2,2,2-trifluoroethyl)-4-(trifluoromethyl)phenyl]pyrrolo[1,2-d][1,2,4]triazin-4-yl}amino)cycloheptan-1-ol AND (1S,3S)-3-({1-[2-(2,2,2-trifluoroethyl)-4-(trifluoromethyl)phenyl]pyrrolo[1,2-d][1,2,4]triazin-4-yl}amino)cycloheptan-1-ol] | 1 to 10 |
| C[C@]1(O)CCCC[C@@H]1Nc1nnc(-c2ccc(C(F)(F)F)cc2CC(F)(F)F)c2cncn12 (racemic) [Compound 283, (1S,2S)-1-methyl-2-({1-[2-(2,2,2-trifluoroethyl)-4-(trifluoromethyl)phenyl]imidazo[1,5-d][1,2,4]triazin-4-yl}amino)cyclohexan-1-ol AND (1R,2R)-1-methyl-2-({1-[2-(2,2,2-trifluoroethyl)-4-(trifluoromethyl)phenyl]imidazo[1,5-d][1,2,4]triazin-4-yl}amino)cyclohexan-1-ol] | 1 to 10 |
| C[C@@H](Nc1nnc(-c2ccc(C(F)(F)F)cc2OC(F)F)c2cccn12)c1cccc(O)c1 (single isomer, unassigned) [Compound 102] | 1 to 10 |
| C[C@H](Nc1nnc(-c2ccc(C(F)(F)F)cc2OC(F)F)c2cccn12)c1cccc(O)c1 (single isomer, unassigned) [Compound 103] | 10 to 100 |
| COc1ccc(-c2nnc(N[C@H]3CCCC[C@]3(C)O)n3cccc23)c(OC(F)(F)F)c1 (single isomer, unassigned) [Compound 180] | 1 to 10 |
| COc1ccc(-c2nnc(N[C@@H]3CCCC[C@@]3(C)O)n3cccc23)c(OC(F)(F)F)c1 (single isomer, unassigned) [Compound 181] | ≥ 300 |
| COc1ccc(-c2nnc(NC(C)c3cccc(O)c3)n3cncc23)c(OC(F)(F)F)c1 (single isomer, unassigned) [Compound 247] | < 1 |
| COc1ccc(-c2nnc(N[C@H](C)c3cccc(O)c3)n3cncc23)c(OC(F)(F)F)c1 (single isomer, unassigned) [Compound 248] | ≥ 300 |
| COc1ccc(-c2nnc(NC(C)c3cccnc3)n3cncc23)c(OC(F)(F)F)c1 (single isomer, unassigned) [Compound 308] | 100 to 300 |
| COc1ccc(-c2nnc(NC(C)c3cccnc3)n3cncc23)c(OC(F)(F)F)c1 (single isomer, unassigned) [Compound 309] | 10 to 100 |
| COc1ccc(-c2nnc(N[C@H]3CCCC[C@]3(C)O)n3cncc23)c(OC(F)(F)F)c1 (single isomer, unassigned) [Compound 310] | ≥ 300 |
| COc1ccc(-c2nnc(N[C@@H]3CCCC[C@@]3(C)O)n3cncc23)c(OC(F)(F)F)c1 (single isomer, unassigned) [Compound 311] | 1 to 10 |
| COc1ccc(-c2nnc(N[C@H]3C[C@@](C)(O)C3)n3cccc23)c(CC(F)(F)F)c1 [Compound 1, (1s,3s)-3-({1-[4-methoxy-2-(2,2,2-trifluoroethyl)phenyl]pyrrolo[1,2-d][1,2,4]triazin-4-yl}amino)-1-methylcyclobutan-1-ol] | 1 to 10 |
| CN1CCC[C@@H](Nc2nnc(-c3ccc(C(F)(F)F)cc3CC(F)(F)F)c3cncn23)C1 [Compound 2, N-[(3R)-1-methylpiperidin-3-yl]-1-[2-(2,2,2-trifluoroethyl)-4-(trifluoromethyl)phenyl]imidazo[1,5-d][1,2,4]triazin-4-amine] | < 1 |
| Cc1cc2c(-c3ccc(C(F)(F)F)cc3OC(F)(F)F)nnc(N[C@H]3C[C@@](C)(O)C3)n2n1 [Compound 3, (1s,3s)-1-methyl-3-({2-methyl-4-[2-(trifluoromethoxy)-4-(trifluoromethyl)phenyl]pyrazolo[1,5-d][1,2,4]triazin-7-yl}amino)cyclobutan-1-ol] | 1 to 10 |
| C[C@]1(O)C[C@@H](Nc2nnc(-c3ccc(C(F)(F)F)cc3C(F)(F)F)c3ccnn23)C1 [Compound 4, (1s,3s)-3-({4-[2,4-bis(trifluoromethyl)phenyl]pyrazolo[1,5-d][1,2,4]triazin-7-yl}amino)-1-methylcyclobutan-1-ol] | 1 to 10 |
| CCN1C[C@H](F)C[C@@H](Nc2nnc(-c3ccc(C(F)(F)F)cc3OC(F)F)c3c(F)ccn23)C1 [Compound 5, 1-[2-(difluoromethoxy)-4-(trifluoromethyl)phenyl]-N-[(3R,5R)-1-ethyl-5-fluoropiperidin-3-yl]-8-fluoropyrrolo[1,2-d][1,2,4]triazin-4-amine] | 1 to 10 |
| FC(F)(F)c1ccc(-c2nnc(N[C@@H]3CCCN(C4CCCOC4)C3)n3cccc23)c(C(F)(F)F)c1 (stereo partly drawn) [Compound 6, 1-[2,4-bis(trifluoromethyl)phenyl]-N-[(3R)-1-(oxan-3-yl)piperidin-3-yl]pyrrolo[1,2-d][1,2,4]triazin-4-amine] | 10 to 100 |
| CN(C)C1CCCN(c2nnc(-c3ccc(C(F)(F)F)cc3C(F)(F)F)c3cccn23)C1 (stereo not shown) [Compound 7, 1-{1-[2,4-bis(trifluoromethyl)phenyl]pyrrolo[1,2-d][1,2,4]triazin-4-yl}-N,N-dimethylpiperidin-3-amine] | 10 to 100 |
| COc1ccc(-c2nnc(N[C@@H]3CCCN(C)C3)n3cccc23)c(OC(F)(F)F)c1 [Compound 8, 1-[4-methoxy-2-(trifluoromethoxy)phenyl]-N-[(3R)-1-methylpiperidin-3-yl]pyrrolo[1,2-d][1,2,4]triazin-4-amine] | 1 to 10 |
| COc1ccc(-c2nnc(N[C@H]3C[C@@](C)(O)C3)n3cccc23)c(OC(F)(F)F)c1 [Compound 9, (1s,3s)-3-({1-[4-methoxy-2-(trifluoromethoxy)phenyl]pyrrolo[1,2-d][1,2,4]triazin-4-yl}amino)-1-methylcyclobutan-1-ol] | 1 to 10 |
| CC(C)CN1CCC[C@@H](Nc2nnc(-c3ccc(C(F)(F)F)cc3C(F)(F)F)c3cccn23)C1 [Compound 10, 1-[2,4-bis(trifluoromethyl)phenyl]-N-[(3R)-1-(2-methylpropyl)piperidin-3-yl]pyrrolo[1,2-d][1,2,4]triazin-4-amine] | 1 to 10 |
| Cc1cc2c(-c3ccc(Cl)cc3C(F)F)nnc(N[C@@H]3CCCN(C)C3)n2c1 [Compound 11, 1-[4-chloro-2-(difluoromethyl)phenyl]-7-methyl-N-[(3R)-1-methylpiperidin-3-yl]pyrrolo[1,2-d][1,2,4]triazin-4-amine] | 10 to 100 |
| COc1ccc(-c2nnc(N[C@@H]3CCCN(C)C3)n3cc(C)cc23)c(OC(F)F)c1 [Compound 12, 1-[2-(difluoromethoxy)-4-methoxyphenyl]-7-methyl-N-[(3R)-1-methylpiperidin-3-yl]pyrrolo[1,2-d][1,2,4]triazin-4-amine] | 1 to 10 |
